Source: the NIST ThermoML archive (doi:10.1016/j.jct.2015.12.029)
± gives the expanded uncertainty stated by the source.

Experiments:
[1] = 100 kPa, Liquid, Vibrating tube method
[2] = mn = molality of the nth substance listed, in mol/kg; conditions: 100 kPa, Liquid, Vibrating tube method, m2 = 0

mass density ([1]; 283.15 K) | mass density ([1]; 288.15 K) | mass density ([1]; 293.15 K) | mass density ([1]; 298.15 K) | mass density ([1]; 303.15 K) | mass density ([1]; 308.15 K) | mass density ([1]; 313.15 K) | mass density ([1]; 318.15 K) | mass density ([2]; 283.15 K) | mass density ([2]; 288.15 K) | mass density ([2]; 293.15 K) | mass density ([2]; 298.15 K) | mass density ([2]; 303.15 K) | mass density ([2]; 308.15 K) | mass density ([2]; 313.15 K) | mass density ([2]; 318.15 K) | Compound
817.103 ± 0.22 kg/m3 | 813.337 ± 0.22 kg/m3 | 809.548 ± 0.22 kg/m3 | 805.738 ± 0.22 kg/m3 | 801.901 ± 0.22 kg/m3 | 798.032 ± 0.22 kg/m3 | 794.128 ± 0.23 kg/m3 | 790.181 ± 0.23 kg/m3 |  |  |  |  |  |  |  |  | CCCCO [butan-1-ol]
 |  |  |  |  |  |  |  | 817.103 ± 0.23 kg/m3 | 813.337 ± 0.23 kg/m3 | 809.548 ± 0.23 kg/m3 | 805.738 ± 0.23 kg/m3 | 801.901 ± 0.23 kg/m3 | 798.032 ± 0.23 kg/m3 | 794.128 ± 0.23 kg/m3 | 790.181 ± 0.23 kg/m3 | CCCCO [butan-1-ol] + CCCCn1cc[n+](C)c1.F[B-](F)(F)F
 |  |  |  |  |  |  |  | 817.103 ± 0.23 kg/m3 | 813.337 ± 0.23 kg/m3 | 809.548 ± 0.23 kg/m3 | 805.738 ± 0.23 kg/m3 | 801.901 ± 0.23 kg/m3 | 798.032 ± 0.23 kg/m3 | 794.128 ± 0.23 kg/m3 | 790.181 ± 0.23 kg/m3 | CCCCO [butan-1-ol] + CCn1cc[n+](C)c1.F[B-](F)(F)F
